{"source": "patent US20160120865A1", "about": "“TOPICAL TREATMENT OF LOCALIZED SCLERODERMA” (PRECISION DERMATOLOGY, INC., priority 2013, published 2016)", "test_system": "TGFβ activated genes", "test": "TGF-β osmotic pump mouse skin model, gene expression by nanostring", "format": "in vivo, C57BL/6 mice", "parameters": "key to Adam12 expression, TGFb/TGFbimatinib / spp1 expression, TGFb/TGFbimatinib / Thbs1 expression, TGFb/TGFbimatinib / Col1a1 expression, TGFb/TGFbimatinib / Sfrp2 expression, TGFb/TGFbimatinib / acta2 expression, TGFb/TGFbimatinib / Angpt2 expression, TGFb/TGFbimatinib / lox expression, TGFb/TGFbimatinib / Fmod expression, TGFb/TGFbimatinib / Wisp1 expression, TGFb/TGFbimatinib / serpine1 expression, TGFb/TGFbimatinib: TGFβ treatment works and the effect is blocked by imatinib in the local skin (+); DS+ skin (−)", "conditions": "for serpine1 expression, TGFb/TGFbimatinib / Adam12 expression, TGFb/TGFbimatinib / spp1 expression, TGFb/TGFbimatinib / Thbs1 expression, TGFb/TGFbimatinib / Col1a1 expression, TGFb/TGFbimatinib / Sfrp2 expression, TGFb/TGFbimatinib / acta2 expression, TGFb/TGFbimatinib / Angpt2 expression, TGFb/TGFbimatinib / lox expression, TGFb/TGFbimatinib / Fmod expression, TGFb/TGFbimatinib / Wisp1 expression, TGFb/TGFbimatinib: imatinib cream topical 2 times per day, 7 days; for serpine1 expression, TGFb/TGFbimatinib: FIG. 3; for Adam12 expression, TGFb/TGFbimatinib: FIG. 4; for spp1 expression, TGFb/TGFbimatinib: FIG. 5; for Thbs1 expression, TGFb/TGFbimatinib: FIG. 6; for Col1a1 expression, TGFb/TGFbimatinib: FIG. 7; for Sfrp2 expression, TGFb/TGFbimatinib: FIG. 8; for acta2 expression, TGFb/TGFbimatinib: FIG. 9; for Angpt2 expression, TGFb/TGFbimatinib: FIG. 10; for lox expression, TGFb/TGFbimatinib: FIG. 11; for Fmod expression, TGFb/TGFbimatinib: FIG. 12; for Wisp1 expression, TGFb/TGFbimatinib: FIG. 13", "description": "C57BL/6 mice were obtained from The Jackson Laboratory (Bar Harbor, Me.). Osmotic pumps (Alzet, model 2001) designed to deliver 1 μL/h were loaded with TGF-β (1.25 μg) in phosphate buffered saline (PBS) supplemented with 0.1 mg/mL bovine serum albumin (BSA). Pumps were implanted subcutaneously in 8-week-old mice, who were subsequently treated with imatinib or placebo cream. After […], mice were sacrificed, and the skin (˜1 cm^2) surrounding the pump outlet was homogenized in TRIzol (Invitrogen) for preparation of RNA, or fixed in formalin. Skin from mice treated with PBS and TGF-β was analyzed using nanostring technology. A set of 50 genes including inflammatory genes, macrophages markers, TGF-β-regulated genes, and others were analyzed. 100 ng of RNA per sample was used and gene expression was normalized to the expression of 8 housekeeping-genes.\nTGFb 2.5 μg/mL in 7 day Alzet pump.\nimatinib cream topical application 7 days (2 times per day)\n(3) −DS=Far from local skin", "data": [{"smiles": "Cc1ccc(NC(=O)c2ccc(CN3CCN(C)CC3)cc2)cc1Nc1nccc(-c2cccnc2)n1", "note": "[imatinib]", "values": [{"measurement": "serpine1 expression, TGFb/TGFbimatinib", "setting": "DS+ (near local skin)", "result": "(−)"}, {"measurement": "Adam12 expression, TGFb/TGFbimatinib", "setting": "DS+ (near local skin)", "result": "(−)"}, {"measurement": "spp1 expression, TGFb/TGFbimatinib", "setting": "DS+ (near local skin)", "result": "(−)"}, {"measurement": "Thbs1 expression, TGFb/TGFbimatinib", "setting": "DS+ (near local skin)", "result": "(−)"}, {"measurement": "Col1a1 expression, TGFb/TGFbimatinib", "setting": "DS+ (near local skin)", "result": "(−)"}, {"measurement": "Sfrp2 expression, TGFb/TGFbimatinib", "setting": "DS+ (near local skin)", "result": "(−)"}, {"measurement": "acta2 expression, TGFb/TGFbimatinib", "setting": "DS+ (near local skin)", "result": "(−)"}, {"measurement": "Angpt2 expression, TGFb/TGFbimatinib", "setting": "DS+ (near local skin)", "result": "(−)"}, {"measurement": "lox expression, TGFb/TGFbimatinib", "setting": "DS+ (near local skin)", "result": "(−)"}, {"measurement": "Fmod expression, TGFb/TGFbimatinib", "setting": "DS+ (near local skin)", "result": "(−)"}, {"measurement": "Wisp1 expression, TGFb/TGFbimatinib", "setting": "DS+ (near local skin)", "result": "(−)"}, {"measurement": "serpine1 expression, TGFb/TGFbimatinib", "setting": "LS (local skin)", "result": "(+)"}, {"measurement": "Adam12 expression, TGFb/TGFbimatinib", "setting": "LS (local skin)", "result": "(+)"}, {"measurement": "spp1 expression, TGFb/TGFbimatinib", "setting": "LS (local skin)", "result": "(+)"}, {"measurement": "Thbs1 expression, TGFb/TGFbimatinib", "setting": "LS (local skin)", "result": "(+?)"}, {"measurement": "Col1a1 expression, TGFb/TGFbimatinib", "setting": "LS (local skin)", "result": "(+)"}, {"measurement": "Sfrp2 expression, TGFb/TGFbimatinib", "setting": "LS (local skin)", "result": "(+)"}, {"measurement": "acta2 expression, TGFb/TGFbimatinib", "setting": "LS (local skin)", "result": "(+)"}, {"measurement": "Angpt2 expression, TGFb/TGFbimatinib", "setting": "LS (local skin)", "result": "(+)"}, {"measurement": "lox expression, TGFb/TGFbimatinib", "setting": "LS (local skin)", "result": "(+)"}, {"measurement": "Fmod expression, TGFb/TGFbimatinib", "setting": "LS (local skin)", "result": "(+)"}, {"measurement": "Wisp1 expression, TGFb/TGFbimatinib", "setting": "LS (local skin)", "result": "(+)"}, {"measurement": "effect of TGFβ treatment in skin", "setting": "local skin (+) and DS+ skin (−), topical imatinib cream", "result": "blocked"}, {"measurement": "activation of TGFβ activated genes", "setting": "mouse skin, topical imatinib cream", "result": "inhibits the activation of these genes"}]}]}
